Starred links: 1 amine or outer side, 2 acyl side, 3 side chain; linkers in the order of their positions; H or OH if unused. Positions of bridges follow the written chain, without caps; N, C: chain ends. Non-standard residues stand in square brackets, D forms with d. Residues, ends and D or L forms follow the SMILES beside them. d(αMeL) = CC(C)C[C@@](C)(N)C(=O)O; Cha = N[C@@H](CC1CCCCC1)C(=O)O; Chg = N[C@H](C(=O)O)C1CCCCC1; Suc = O=C(CCC(=O)[*:2])[*:1]; NcPrGly = O=C(O)CNC1CC1; Nva = CCC[C@H](N)C(=O)O; Dap = NC[C@H](N)C(=O)O; Sar = CNCC(=O)O
Assays:
Assay type in all cases: cell-based
human V1a receptor = molecular target: T1, human V1a receptor (Homo sapiens, UniProt P37288); test: Calcium flux assay (FLIPR), agonist mode, CHO cells expressing human V1a receptor; conditions: read-out: hV1a EC50
T1 construct: expressed in transfected cells
T1 sequence (P37288 whole entry): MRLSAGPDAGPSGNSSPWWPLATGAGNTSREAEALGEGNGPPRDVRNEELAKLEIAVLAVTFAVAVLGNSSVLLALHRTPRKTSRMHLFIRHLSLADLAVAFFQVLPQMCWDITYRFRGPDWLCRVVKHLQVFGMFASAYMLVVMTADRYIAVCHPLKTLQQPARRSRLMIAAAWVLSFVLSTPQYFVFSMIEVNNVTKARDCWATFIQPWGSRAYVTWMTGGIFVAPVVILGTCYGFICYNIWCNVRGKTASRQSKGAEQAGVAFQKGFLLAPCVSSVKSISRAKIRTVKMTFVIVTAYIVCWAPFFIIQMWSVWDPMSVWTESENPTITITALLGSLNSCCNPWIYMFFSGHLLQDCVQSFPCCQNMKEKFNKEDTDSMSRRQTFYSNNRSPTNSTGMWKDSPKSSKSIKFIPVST
Description: (§1) Chines Hamster Ovary (CHO) cells were transfected with expression plasmids encoding either the human V1a, the human Oxytocin (OTR) or the human V2 receptor, the later in combination with the chimeric Gqs5 G protein to redirect the signal to Calcium flux. Stable cells were cloned by limiting dilution to yield monoclonal cell lines expressing either human V1a, human V2+Gqs5 or human OTR receptors and selected based on functional responses detected on a fluorometric imaging plate reader (FLIPR) detecting Calcium flux in the cell after receptor activation. The stable cell lines were grown in F-12 K Nutrient Mixture (Kaighns Modification), containing 10% foetal bovine serum (FBS), 1% penicillin-streptomycin, 1% L-[…], 200 ug/ml Geneticin at 37° C. in a 10% CO2 incubator at 95% humidity.
(§2) On the afternoon before the assay, cells were plated at a density of 50,000 cells/well into black 96 well plates with clear bottoms to allow cell inspection and fluorescence measurements from the bottom of each well. The density of cells was sufficient to yield a confluent monolayer the next day. Hanks balanced salt solution, without phenol red, containing 20 mM HEPES (pH 7.3) and 2.5 mM probenecid (assay buffer) was prepared fresh for each experiment. Compound dilutions were made using a Beckman Biomek 2000 laboratory automation workstation, in assay buffer containing 1% DMSO. The dye-loading buffer consisted of a final concentration of 2 μM Fluo-4-AM (dissolved in DMSO and pluronic acid) in assay buffer. The existing culture media was removed from the wells and 100 μl of the dye-loading buffer was added to each well and incubated for approximately 60 min at 37° C. in a 5% CO2 incubator at 95% humidity. Once dye-loaded, the cells were washed thoroughly on an Embla cell washer with the assay buffer to remove any unincorporated dye. Exactly 100 μl assay buffer was left in each well.
(§3) Each 96 well plate containing dye-loaded cells was placed into the FLIPR machine and the laser intensity set to a suitable level to detect low basal fluorescence. To test compounds as agonists, 25 μl diluted compound was added to the plate 10 seconds into the fluorescent measurements and fluorescent response was recorded for 5 minutes. The fluorescence data was normalized to the endogenous full agonist dose-response set at 100% for the maximum response and 0% for the minimum. Each agonist concentration-response curve was constructed using a four parameter logistic equation with Microsoft Excel XLFit as follows: Y=Minimum+((Maximum−Minimum)/(1+10^(LogEC50-X)nH)), where y is the % normalized fluorescence, minimum is the minimum y, maximum is the maximum y, logEC50 is the log10 concentration which produces 50% of the maximum induced fluorescence, x is the log10 of the concentration of the agonist compound and H is the slope of the curve (the Hill Coefficient). The maximum value gives the efficacy of the agonist test compound in percentage. The concentration of agonist that produced a half-maximal response is represented by the EC50 value, the logarithm of which yielded the pEC50 value.

human V2 receptor = molecular target: T2, human V2 receptor (Homo sapiens, UniProt P30518); test: Calcium flux assay (FLIPR), agonist mode, CHO cells expressing human V2 receptor + Gqs5; conditions: for EC50: CHO cells, human V2 + chimeric Gqs5, calcium flux FLIPR, read-out: hV2 EC50; for hV2 efficacy (%) / Emax: maximum response normalized to endogenous full agonist = 100%; for Emax: CHO, read-out: hV2 efficacy (%)
T2 construct: expressed in transfected cells
T2 sequence (P30518 whole entry): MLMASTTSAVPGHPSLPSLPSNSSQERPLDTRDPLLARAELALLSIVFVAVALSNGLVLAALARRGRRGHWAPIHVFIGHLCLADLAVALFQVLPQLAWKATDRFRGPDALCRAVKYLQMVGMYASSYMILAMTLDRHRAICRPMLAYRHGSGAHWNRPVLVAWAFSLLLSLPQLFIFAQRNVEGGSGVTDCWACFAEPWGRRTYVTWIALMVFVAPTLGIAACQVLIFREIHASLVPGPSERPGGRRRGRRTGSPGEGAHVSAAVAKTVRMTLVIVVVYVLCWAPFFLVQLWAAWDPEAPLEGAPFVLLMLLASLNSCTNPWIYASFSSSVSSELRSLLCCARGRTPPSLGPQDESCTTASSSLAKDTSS
Description: as §1, §2, §3

[1] = molecular target: T3, human Oxytocin (OTR) receptor (Homo sapiens, UniProt P30559); test: Calcium flux assay (FLIPR), agonist mode, CHO cells expressing human oxytocin receptor; conditions: for EC50: CHO cells, human OTR, calcium flux FLIPR, read-out: hOT EC50; for Emax: CHO, read-out: hOT efficacy (%); for Emax / hOT efficacy (%): maximum response normalized to endogenous full agonist = 100%
T3 construct: expressed in transfected cells
T3 sequence (P30559 1-389): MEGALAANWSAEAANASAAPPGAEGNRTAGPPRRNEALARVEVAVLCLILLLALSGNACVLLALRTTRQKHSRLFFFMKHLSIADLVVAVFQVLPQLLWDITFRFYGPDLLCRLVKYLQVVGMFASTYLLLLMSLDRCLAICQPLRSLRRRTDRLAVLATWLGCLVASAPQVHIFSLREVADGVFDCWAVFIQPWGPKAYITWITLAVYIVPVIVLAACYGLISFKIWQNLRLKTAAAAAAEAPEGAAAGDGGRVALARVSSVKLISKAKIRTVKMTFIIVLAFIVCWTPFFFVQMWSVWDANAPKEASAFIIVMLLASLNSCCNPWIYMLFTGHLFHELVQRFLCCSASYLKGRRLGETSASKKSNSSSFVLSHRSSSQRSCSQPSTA
Description: as §1, §2, §3

| EC50 (human V1a receptor) [nM] | EC50 (human V2 receptor) [nM] | hV2 efficacy (%) (human V2 receptor) | EC50 [1] [nM] | Emax [1] [%] | hOT efficacy (%) [1] [%] | Emax (human V2 receptor) [%] | Structure (SMILES) |
| --- | --- | --- | --- | --- | --- | --- | --- |
| > 27000 | 626 | 146% | 0.38 | 126 | – | – | CC[C@H](C)[C@@H]1NC(=O)[C@H](Cc2ccc(O)cc2)NC(=O)CCC(=O)NC[C@@H](C(=O)N(CC(=O)N[C@@H](CC(C)C)C(=O)NCC(N)=O)C2CC2)NC(=O)[C@H](CC(N)=O)NC(=O)[C@H](CCC(N)=O)NC1=O [Example 38] (YIQN[Dap][NcPrGly]LG-NH2; linker N-5 via Suc) |
| 5120 | 216 | 130% | 1 | – | 105 | – | CC[C@H](C)[C@@H]1NC(=O)[C@H](Cc2ccc(O)cc2)NC(=O)CCC(=O)NC[C@@H](C(=O)N2CCC[C@H]2C(=O)N[C@@H](CC(C)C)C(=O)NCC(N)=O)NC(=O)[C@H](CC(N)=O)NC(=O)[C@H](CCC(N)=O)NC1=O [Example 1] (YIQN[Dap]PLG-NH2; linker N-5 via Suc (inferred); C-terminus assumed) |
| > 27000 | 199 | 126% | 0.5 | 107 | – | – | CC[C@H](C)[C@@H]1NC(=O)[C@H](Cc2ccc(O)cc2)NC(=O)CCC(=O)NC[C@@H](C(=O)N(C)CC(=O)N[C@@H](CC2CCCCC2)C(=O)NCC(N)=O)NC(=O)[C@H](CC(N)=O)NC(=O)[C@H](CCC(N)=O)NC1=O [Example 31] (YIQN[Dap][Sar][Cha]G-NH2; linker N-5 via Suc) |
| 562 | 174 | 112% | 0.9 | 117 | – | – | CC[C@H](C)[C@@H]1NC(=O)[C@H](Cc2ccc(O)cc2)NC(=O)CCC(=O)NC[C@@H](C(=O)N2CCC[C@H]2C(=O)N[C@H](C(=O)NCC(N)=O)C2CCCCC2)NC(=O)[C@H](CC(N)=O)NC(=O)[C@H](CCC(N)=O)NC1=O [Example 20] (YIQN[Dap]P[Chg]G-NH2; linker N-5 via Suc) |
| > 27000 | 2070 | – | 0.6 | 109 | – | 113 | CC[C@H](C)[C@@H]1NC(=O)[C@H](Cc2ccc(O)cc2)NC(=O)CCC(=O)NC[C@@H](C(=O)N(C)CC(=O)N[C@@H](C(=O)NCC(N)=O)[C@H](C)O)NC(=O)[C@H](CC(N)=O)NC(=O)[C@H](CCC(N)=O)NC1=O [Example 29] (YIQN[Dap][Sar][dT]G-NH2; linker N-5 via Suc) |
| 351 | 116 | 116/116% | 0.6 | 114 | – | – | CCC[C@H](NC(=O)[C@@H]1CCCN1C(=O)[C@@H]1CNC(=O)CCC(=O)N[C@@H](Cc2ccc(O)cc2)C(=O)N[C@@H]([C@@H](C)CC)C(=O)N[C@@H](CCC(N)=O)C(=O)N[C@@H](CC(N)=O)C(=O)N1)C(=O)NCC(N)=O [Example 17] (YIQN[Dap]P[Nva]G-NH2; linker N-5 via Suc) |
| > 27000 | 1380 | – | 0.5 | 109 | – | 119 | CC[C@@H](C)[C@@H](NC(=O)CN(C)C(=O)[C@@H]1CNC(=O)CCC(=O)N[C@@H](Cc2ccc(O)cc2)C(=O)N[C@@H]([C@@H](C)CC)C(=O)N[C@@H](CCC(N)=O)C(=O)N[C@@H](CC(N)=O)C(=O)N1)C(=O)NCC(N)=O [Example 28] (YIQN[Dap][Sar][dI]G-NH2; linker N-5 via Suc) |
| – | – | – | 8 | – | 123 | – | CC[C@H](C)[C@@H]1NC(=O)[C@H](Cc2ccc(O)cc2)NC(=O)CCC(=O)NC[C@@H](C(=O)N2CCC[C@H]2C(=O)N[C@@H](Cc2cnc[nH]2)C(=O)NCC(N)=O)NC(=O)[C@H](CC(N)=O)NC(=O)[C@H](CCC(N)=O)NC1=O [Example 15] (YIQN[Dap]PHG-NH2; linker N-5 via Suc) |
| – | – | – | 1 | – | 130 | – | CC[C@H](C)[C@@H]1NC(=O)[C@H](Cc2ccc(O)cc2)NC(=O)CCC(=O)NC[C@@H](C(=O)N2CCC[C@H]2C(=O)N[C@H](C(=O)NCC(N)=O)[C@@H](C)O)NC(=O)[C@H](CC(N)=O)NC(=O)[C@H](CCC(N)=O)NC1=O [Example 10] (YIQN[Dap]PTG-NH2; linker N-5 via Suc) |
| – | – | – | 1.6 | 130 | – | – | CC[C@H](C)[C@@H]1NC(=O)[C@H](Cc2ccc(O)cc2)NC(=O)CCC(=O)NC[C@@H](C(=O)N2CCC[C@H]2C(=O)N[C@H](C(=O)NCC(N)=O)C(C)C)NC(=O)[C@H](CC(N)=O)NC(=O)[C@H](CCC(N)=O)NC1=O [Example 12] (YIQN[Dap]PVG-NH2; linker N-5 via Suc) |
| – | – | – | 0.8 | 117 | – | – | CC[C@H](C)[C@@H]1NC(=O)[C@H](Cc2ccc(O)cc2)NC(=O)CCC(=O)NC[C@@H](C(=O)N(CC(=O)N[C@@H](CO)C(=O)NCC(N)=O)C2CC2)NC(=O)[C@H](CC(N)=O)NC(=O)[C@H](CCC(N)=O)NC1=O [Example 45] (YIQN[Dap][NcPrGly]SG-NH2; linker N-5 via Suc) |
| – | – | – | 1 | – | 132 | – | CC[C@H](C)[C@@H]1NC(=O)[C@H](Cc2ccc(O)cc2)NC(=O)CCC(=O)NC[C@@H](C(=O)N2CCC[C@H]2C(=O)N[C@H](C(=O)NCC(N)=O)[C@@H](C)CC)NC(=O)[C@H](CC(N)=O)NC(=O)[C@H](CCC(N)=O)NC1=O [Example 9] (YIQN[Dap]PIG-NH2; linker N-5 via Suc) |
| – | – | – | 6 | – | 122 | – | CC[C@H](C)[C@@H]1NC(=O)[C@H](Cc2ccc(O)cc2)NC(=O)CCC(=O)NC[C@@H](C(=O)N2CCC[C@H]2C(=O)N[C@@H](Cc2ccccc2)C(=O)NCC(N)=O)NC(=O)[C@H](CC(N)=O)NC(=O)[C@H](CCC(N)=O)NC1=O [Example 14] (YIQN[Dap]PFG-NH2; linker N-5 via Suc) |
| – | – | – | 3 | – | 101 | – | CC[C@H](C)[C@@H]1NC(=O)[C@H](Cc2ccc(O)cc2)NC(=O)CCC(=O)NC[C@@H](C(=O)N2CCC[C@H]2C(=O)N[C@](C)(CC(C)C)C(=O)NCC(N)=O)NC(=O)[C@H](CC(N)=O)NC(=O)[C@H](CCC(N)=O)NC1=O [Example 7] (YIQN[Dap]P[d(αMeL)]G-NH2; linker N-5 via Suc) |
| > 27000 | – | – | 4 | – | 144 | – | CC[C@H](C)[C@@H]1NC(=O)[C@H](Cc2ccc(O)cc2)NC(=O)[C@@H](N)CC(=O)NC[C@@H](C(=O)N(C)CC(=O)N[C@@H](CC(C)C)C(=O)NCC(N)=O)NC(=O)[C@H](CC(N)=O)NC(=O)[C@H](CCC(N)=O)NC1=O [Example 2] (H-DYIQN[Dap][Sar]LG-NH2; lactam 1-6) |
| – | – | – | 2 | – | 111 | – | CC[C@H](C)[C@@H]1NC(=O)[C@H](Cc2ccc(O)cc2)NC(=O)CCC(=O)NC[C@@H](C(=O)N(C)CC(=O)N[C@@H](Cc2c[nH]c3ccccc23)C(=O)NCC(N)=O)NC(=O)[C@H](CC(N)=O)NC(=O)[C@H](CCC(N)=O)NC1=O [Example 36] (YIQN[Dap][Sar]WG-NH2; linker N-5 via Suc) |
